Target: MetAP-2 (Homo sapiens, UniProt P50579)
Assay: MetAP-2 activity measurement (coupled enzymatic reactions, substrate Met-Arg-Ser, photometric at 450 nm)
Format: biochemical
Conditions: Inhibition of MetAP-2; read-out: IC50 enzyme
Experimental: The MetAP-2 activity is determined by coupling enzymatic reactions. The tripeptide Met-Arg-Ser (MAS) is employed as substrate. The methionine liberated is firstly converted into Metox and H2O2 by L-aminooxidase (AAO). In the second step, the peroxidase (POD) with the aid of the H2O2 catalyses the oxidation of the leukodye dianisidine to dianisidineox, the increase of which is detected photometrically at 450 nm.
MetAP-2 activity can be recorded continuously as kinetics. The reaction scheme illustrates that one mol of dianisidineox is formed per mol of methionene. The MetAP-2 enzyme activity can therefore be calculated directly as Δ absorption per time unit. Qualification of the MetAP-2 activity (mol of Met/time unit) is possible with the aid of the dianisidineox extinction coefficient. The change in extinction per time unit is depicted graphically and a slope calculation is carried out in the visually linear region of the reaction.

Sequence of MetAP-2 (P50579 whole entry, species assumed): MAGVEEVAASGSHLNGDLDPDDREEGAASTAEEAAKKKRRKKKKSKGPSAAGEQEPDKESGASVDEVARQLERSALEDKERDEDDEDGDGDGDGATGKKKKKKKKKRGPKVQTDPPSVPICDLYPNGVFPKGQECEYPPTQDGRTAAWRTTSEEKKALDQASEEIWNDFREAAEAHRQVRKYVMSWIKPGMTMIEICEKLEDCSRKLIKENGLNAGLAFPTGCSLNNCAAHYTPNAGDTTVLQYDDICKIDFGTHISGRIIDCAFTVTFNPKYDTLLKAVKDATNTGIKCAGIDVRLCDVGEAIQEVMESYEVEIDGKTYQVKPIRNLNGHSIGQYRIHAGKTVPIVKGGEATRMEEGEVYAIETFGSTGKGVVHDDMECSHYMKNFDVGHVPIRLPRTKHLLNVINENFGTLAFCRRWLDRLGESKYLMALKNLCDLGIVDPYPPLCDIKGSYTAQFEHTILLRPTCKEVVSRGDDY

SMILES | IC50 [nM]
c1ccc2c(OC[C@H]3CCCN3c3ccnc4nncn34)cccc2c1 [Compound A4, 5-[(R)-2-(naphthalen-1-yloxymethyl)pyrrolidin-1-yl]-[1,2,4]-triazolo[4,3-a]pyrimidine] | > 10000
c1ccc2c(OC[C@H]3CCCN3c3ccnc4ncnn34)ccnc2c1 [Compound A8] | 10 to 1000
O=C(NCc1ccc(F)cc1)c1cc(OC[C@H]2CCCN2c2ccnc3ncnn23)c2ccccc2n1 [Compound A11] | 10 to 1000
O=C(NCCc1ccc(F)cc1)c1cc(OC[C@H]2CCCN2c2ccnc3ncnn23)c2ccccc2n1 [Compound A12] | 10 to 1000
CCNC(=O)c1cc(OC[C@H]2CCCN2c2ccnc3ncnn23)c2ccccc2n1 [Compound A13] | 10 to 1000
c1ccc2c(OC[C@H]3CCCN3c3ccnc4ncnn34)nccc2c1 [Compound A16] | 10 to 1000
c1cc(OC[C@H]2CCCN2c2ccnc3ncnn23)c2ccncc2c1 [Compound A17] | 10 to 1000
c1ccc2c(OC[C@H]3CCCN3c3ccnc4ncnn34)ccc(CNCCCN3CCOCC3)c2c1 [Compound A21] | 10 to 1000
O=C(NCc1ccccc1)c1cc(OC[C@H]2CCCN2c2ccnc3ncnn23)c2ccccc2n1 [Compound A22] | 10 to 1000
O=C(NCCc1c[nH]c2ccccc12)c1cc(OC[C@H]2CCCN2c2ccnc3ncnn23)c2ccccc2n1 [Compound A23] | 10 to 1000
NS(=O)(=O)c1ccc(CCNC(=O)c2cc(OC[C@H]3CCCN3c3ccnc4ncnn34)c3ccccc3n2)cc1 [Compound A24] | 10 to 1000
CC(C)(C)OC(=O)N1CCc2cccc(OC[C@H]3CCCN3c3ccnc4ncnn34)c2C1 [Compound A25] | 1000 to 10000
c1cc2c(c(OC[C@H]3CCCN3c3ccnc4ncnn34)c1)CNCC2 [Compound A27] | 10 to 1000
O=C(NCCc1ccc(Cl)cc1)c1cc(OC[C@H]2CCCN2c2ccnc3ncnn23)c2ccccc2n1 [Compound A28] | 1000 to 10000
CC(C)(C)OC(=O)N[C@H](CC(N)=O)C(=O)N1CCc2cccc(OC[C@H]3CCCN3c3ccnc4ncnn34)c2C1 [Compound A29] | 10 to 1000
CC(=O)N1CCc2cccc(OC[C@H]3CCCN3c3ccnc4ncnn34)c2C1 [Compound A33] | 10 to 1000
O=C(c1ccno1)N1CCc2cccc(OC[C@H]3CCCN3c3ccnc4ncnn34)c2C1 [Compound A34] | 10 to 1000
CC(C)(C)OC(=O)NCCCCN1CCc2cccc(OC[C@H]3CCCN3c3ccnc4ncnn34)c2C1 [Compound A35] | 10 to 1000
NC(=O)C[C@@H](N)C(=O)N1CCc2cccc(OC[C@H]3CCCN3c3ccnc4ncnn34)c2C1 [Compound A36] | 10 to 1000
NCC(=O)N1CCc2cccc(OC[C@H]3CCCN3c3ccnc4ncnn34)c2C1 [Compound A37] | 10 to 1000

Second part, the molecule after the results:

IC50 [nM] | SMILES
10 to 1000 | FC(F)(F)Oc1ccc2nccc(OC[C@H]3CCCN3c3ccnc4ncnn34)c2c1 [Compound A9]
10 to 1000 | FC(F)(F)c1ccc2nccc(OC[C@H]3CCCN3c3ccnc4ncnn34)c2c1 [Compound A10]
10 to 1000 | O=C(NCCCN1CCCC1=O)c1cc(OC[C@H]2CCCN2c2ccnc3ncnn23)c2ccccc2n1 [Compound A18]
10 to 1000 | CCOC(=O)c1n[nH]c(C)c1OC[C@H]1CCCN1c1ccnc2ncnn12 [Compound A19]
10 to 1000 | c1ccc2c(OC[C@H]3CCCN3c3ccnc4ncnn34)ccc(CNCCN3CCOCC3)c2c1 [Compound A20]
10 to 1000 | O=C(OC[C@H]1CCCN1c1ccnc2ncnn12)c1ccc(F)cc1 [Compound A26]
10 to 1000 | CC(C)(C)OC(=O)NCC(=O)N1CCc2cccc(OC[C@H]3CCCN3c3ccnc4ncnn34)c2C1 [Compound A31]
10 to 1000 | CC(=O)N[C@@H](CC(N)=O)C(=O)N1CCc2cccc(OC[C@H]3CCCN3c3ccnc4ncnn34)c2C1 [Compound A32]
10 to 1000 | N#CCCCCN1CCc2cccc(OC[C@H]3CCCN3c3ccnc4ncnn34)c2C1 [Compound A38]
10 to 1000 | CC(C)(C)OC(=O)N[C@H](CC#N)C(=O)N1CCc2cccc(OC[C@H]3CCCN3c3ccnc4ncnn34)c2C1 [Compound A39]

Source: patent US8546406B2, “Heterocyclic compounds as metap-2 inhibitors” (Merck Patent GmbH, priority 2009, dated 2013)
